Results: paper PMC4893628, “Chalcone-based Selective Inhibitors of a C4 Plant Key Enzyme as Novel Potential Herbicides” (Scientific Reports, 2016)
Read-outs that look alike come from different tables or passages of the source.

Key:
[1] = tested on: Escherichia coli K-12 MG1655; test: Bacterial growth in microscale cultivation, E. coli; type: cell-based; conditions: relative to control; for activity at 0.1 µM / activity at 1 µM / activity at 10 µM: Escherichia coli
Experimental: The following bacteria were cultivated in the presence of trans-chalcone derived inhibitors: Corynebacterium glutamicum ATCC13032[43], Escherichia coli K-12 MG1655[44], Pseudomonas putida KT2440[45], and Bacillus subtilis 168[46]. The growth of these bacteria was monitored in flower-well plates shaken at 1200 rpm as backscatter at 620 nm (gain 20) using a BioLector® microscale cultivation system (m2p labs, Baesweiler, Germany). For further experimental details please refer to the Supplementary Information.
medium or the appropriate minimal medium and shaken at 140 rpm overnight. For inoculation of
the main culture, cells equivalent to an optical density at 600 nm of 0.5 (C. glutamicum, E. coli,
and P. putida) or 0.25 (B. subtilis) in 800 µL medium were washed and resuspended in fresh
media. Inhibitor substances were dissolved in DMSO and added to the media to a final
Since the least polar trans-chalcone and 2’-hydroxychalcone precipitated in the growth media at
the highest concentrations, the maximal concentration of these compounds was reduced to 400
µM and 100 µM, respectively. The final backscatter at 620 nm, the growth rate (h-1), and the
duration of the lag phase of all cultures were determined in a BioLector microscale cultivation
system in comparison to negative controls supplemented with the solvent DMSO. A longer lag

F. trinervia PEPC = target: T1, F. trinervia PEPC (Flaveria trinervia, UniProt P30694); test: biochemical; type: biochemical; conditions: C4 PEPC
T1 construct: the full-length ppcA gene of PEPC from F. trinervia (EMBL-Bank X61304); made in house; host or cells: Escherichia coli BL21(DE3)
T1 sequence (P30694 1-966): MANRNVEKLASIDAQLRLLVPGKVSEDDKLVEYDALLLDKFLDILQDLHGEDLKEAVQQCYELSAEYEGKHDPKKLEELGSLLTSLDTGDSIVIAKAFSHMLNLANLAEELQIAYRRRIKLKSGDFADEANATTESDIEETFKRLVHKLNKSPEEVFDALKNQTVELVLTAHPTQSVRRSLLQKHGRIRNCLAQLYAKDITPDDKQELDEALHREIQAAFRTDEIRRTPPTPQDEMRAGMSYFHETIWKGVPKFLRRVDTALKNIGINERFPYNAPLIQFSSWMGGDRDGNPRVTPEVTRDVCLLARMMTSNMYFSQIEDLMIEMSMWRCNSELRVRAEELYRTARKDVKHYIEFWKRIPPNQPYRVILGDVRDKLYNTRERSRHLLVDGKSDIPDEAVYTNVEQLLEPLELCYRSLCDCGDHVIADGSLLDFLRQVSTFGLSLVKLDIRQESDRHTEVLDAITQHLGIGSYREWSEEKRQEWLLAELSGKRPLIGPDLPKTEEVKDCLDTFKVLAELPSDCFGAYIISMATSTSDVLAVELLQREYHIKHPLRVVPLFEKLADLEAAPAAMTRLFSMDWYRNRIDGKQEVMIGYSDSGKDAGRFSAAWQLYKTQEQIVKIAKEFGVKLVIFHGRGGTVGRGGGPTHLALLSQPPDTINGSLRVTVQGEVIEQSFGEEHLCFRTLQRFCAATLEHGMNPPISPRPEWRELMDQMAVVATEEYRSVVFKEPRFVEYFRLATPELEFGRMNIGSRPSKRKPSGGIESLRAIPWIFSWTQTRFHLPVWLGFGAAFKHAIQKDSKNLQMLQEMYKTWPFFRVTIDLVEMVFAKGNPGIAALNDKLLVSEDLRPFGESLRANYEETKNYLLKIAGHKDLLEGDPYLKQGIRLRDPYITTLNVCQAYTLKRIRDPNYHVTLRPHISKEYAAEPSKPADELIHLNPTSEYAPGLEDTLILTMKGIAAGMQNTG
Experimental: The IC50 values of small molecule compounds on F. pringlei and F. trinervia PEPCs were determined using PEPC coupled spectrophotometric assay. The amount of NADH oxidized by NADH-malate dehydrogenase was measured by the decrease in absorbance at 340 nm in a Beckman DU-800 spectrophotometer, thus the value is in proportion to the corresponding substrate conversion of the enzyme. […] The reactions were started by adding two folds of the Km value of PEP for each enzyme. The data were analyzed using GraFit (Erithacus Software, UK).

O=C(/C=C/c1ccc(O)c(O)c1)c1ccc(O)c(O)c1O [Compound 12, 2′,3′,4′,3,4-Pentahydroxy-chalcone]
activity at 0.1 µM ([1]; MG1655, complex medium, 0.1 µM, read-out: Final Backscatter): 98.5%
activity at 0.1 µM ([1]; MG1655, complex medium, 0.1 µM, read-out: Growth rate): 106%
activity at 1 µM ([1]; MG1655, complex medium, 1 µM, read-out: Final Backscatter): 100%
activity at 1 µM ([1]; MG1655, complex medium, 1 µM, read-out: Growth rate): 100%
activity at 10 µM ([1]; MG1655, complex medium, 10 µM, read-out: Final Backscatter): 97.9%
activity at 10 µM ([1]; MG1655, complex medium, 10 µM, read-out: Growth rate): 111%
activity at 0.1 µM ([1]; MG1655, minimal medium, 0.1 µM, read-out: Final Backscatter): 99.7%
activity at 0.1 µM ([1]; MG1655, minimal medium, 0.1 µM, read-out: Growth rate): 99.8%
activity at 1 µM ([1]; MG1655, minimal medium, 1 µM, read-out: Final Backscatter): 98.5%
activity at 1 µM ([1]; MG1655, minimal medium, 1 µM, read-out: Growth rate): 100%
activity at 10 µM ([1]; MG1655, minimal medium, 10 µM, read-out: Final Backscatter): 101%
activity at 10 µM ([1]; MG1655, minimal medium, 10 µM, read-out: Growth rate): 104%
Lag Phase ([1]; complex medium, 0.1 µM): 108,5%
Lag Phase ([1]; complex medium, 1 µM): 102,8%
Lag Phase ([1]; complex medium, 10 µM): 111,4%
Lag Phase ([1]; minimal medium, 0.1 µM): 99,0%
Lag Phase ([1]; minimal medium, 1 µM): 102,0%
Lag Phase ([1]; minimal medium, 10 µM): 95,1%
lower IC50 value in comparison to 8–11 (F. trinervia PEPC): ~ 5 fold
IC50 (F. trinervia PEPC; IC50 F. trinervia PEPC): 600 ± 100 nM
